“And” between values parts separate entries of the source, which are not always exact repeats. Equal values may be shown once. Inconclusive results and toxic doses are left out. The calls were made as follows: active = survival T/C of 150% or more; inactive = T/C below 125% in these data.
System: CD2F1 mice, L1210 leukemia ip, survival T/C
Test: NCI In Vivo Anticancer Drug Screen. Data for tumor model L1210 Leukemia (intraperitoneal) in CD2F1 (CDF1) mice
Settings: endpoint: mean survival time, higher = longer survival
Outline: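 Antitumor effect is scored in animals hosting a serially transplanted tumor. Values compare compound-dosed animals against vehicle-only controls as a simple quotient.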

[1] = dose: 100.0 mg/kg/injection, schedule: Q01DX009 (ip), vehicle: saline with Tween-80
[2] = dose: 100.0 mg/kg/injection, schedule: Q04DX003 (ip), vehicle: saline with Tween-80
[3] = dose: 200.0 mg/kg/injection, schedule: Q01DX009 (ip), vehicle: saline with Tween-80
[4] = dose: 400.0 mg/kg/injection, schedule: Q01DX009 (ip), vehicle: saline with Tween-80
[5] = dose: 25.0 mg/kg/injection, schedule: Q01DX009 (ip), vehicle: saline with Tween-80
[6] = dose: 50.0 mg/kg/injection, schedule: Q01DX009 (ip), vehicle: saline with Tween-80
[7] = dose: 100.0 mg/kg/injection, schedule: Q04DX002 (ip), vehicle: saline with Tween-80
[8] = dose: 100.0 mg/kg/injection, schedule: Q01DX001 (ip), vehicle: saline with Tween-80
[9] = dose: 400.0 mg/kg/injection, schedule: Q01DX001 (ip), vehicle: saline with Tween-80
[10] = dose: 100.0 mg/kg/injection, schedule: Q01DX009 (ip), vehicle: saline
[11] = dose: 200.0 mg/kg/injection, schedule: Q01DX009 (ip), vehicle: saline

Measured: T/C

Nc1nc(N)c2c(Cl)c(CNc3ccc(C(=O)NC(CC(=O)O)C(=O)O)cc3)ccc2n1 (centres undefined)
inactive: dose: 2.0 mg/kg/injection, schedule: Q01DX001 (ip), vehicle: saline 121 % of control | dose: 2.0 mg/kg/injection, schedule: Q01DX009 (oral), vehicle: saline 94 % of control | dose: 2.0 mg/kg/injection, schedule: Q03HX024 (ip), vehicle: saline 101 % of control | dose: 2.0 mg/kg/injection, schedule: Q08DX002 (ip), vehicle: saline 104 % of control | dose: 4.0 mg/kg/injection, schedule: Q01DX001 (oral), vehicle: saline 103 % of control | dose: 4.0 mg/kg/injection, schedule: Q01DX009 (ip), vehicle: saline 120 % of control | dose: 4.0 mg/kg/injection, schedule: Q01DX009 (sc), vehicle: saline 98 % of control | dose: 8.0 mg/kg/injection, schedule: Q01DX009 (oral), vehicle: saline 118 % of control | dose: 8.0 mg/kg/injection, schedule: Q03HX024 (ip), vehicle: saline 95 % of control | dose: 16.0 mg/kg/injection, schedule: Q01DX001 (oral), vehicle: saline 120 % of control | dose: 16.0 mg/kg/injection, schedule: Q01DX009 (ip), vehicle: saline 88 % of control | dose: 16.0 mg/kg/injection, schedule: Q01DX009 (sc), vehicle: saline 87 % of control | dose: 16.0 mg/kg/injection, schedule: Q03HX016 (ip), vehicle: saline 98 % of control | dose: 32.0 mg/kg/injection, schedule: Q01DX009 (oral), vehicle: saline 93 % of control | dose: 512.0 mg/kg/injection, schedule: Q01DX001 (sc), vehicle: saline 96 % of control

O=CO.[Co]
inactive: dose: 5.0 mg/kg/injection, schedule: Q01DX001 (ip), vehicle: saline 106 % of control | dose: 10.0 mg/kg/injection, schedule: Q01DX001 (ip), vehicle: saline 103 % of control | dose: 20.0 mg/kg/injection, schedule: Q01DX001 (ip), vehicle: saline 106 % of control | dose: 40.0 mg/kg/injection, schedule: Q01DX001 (ip), vehicle: saline 100 % of control

S=C(Nc1ccc(Cl)cc1)Nc1ccc(Cc2ccc(NC(=S)Nc3ccc(Cl)cc3)cc2)cc1
inactive: dose: 100.0 mg/kg/injection, schedule: Q01DX001 (ip), vehicle: Klucel (hydroxypropylcellulose) (HPC) 93 % of control | dose: 200.0 mg/kg/injection, schedule: Q01DX001 (ip), vehicle: Klucel (hydroxypropylcellulose) (HPC) 92 % of control | dose: 400.0 mg/kg/injection, schedule: Q01DX001 (ip), vehicle: Klucel (hydroxypropylcellulose) (HPC) 93 % of control

Cc1c(N)c(=O)n(-c2ccccc2)n1C
inactive: dose: 100.0 mg/kg/injection, schedule: Q04DX003 (ip), vehicle: saline 97 % of control | dose: 200.0 mg/kg/injection, schedule: Q04DX003 (ip), vehicle: saline 103 % of control | dose: 400.0 mg/kg/injection, schedule: Q04DX003 (ip), vehicle: saline 101 % of control

O=C(CCl)C(c1ccc([N+](=O)[O-])cc1)c1ccc([N+](=O)[O-])cc1
inactive: [1] 98 % of control | [2] 100 % of control | [3] 98 % of control | dose: 200.0 mg/kg/injection, schedule: Q04DX003 (ip), vehicle: saline with Tween-80 103 % of control | [4] 98 % of control | dose: 400.0 mg/kg/injection, schedule: Q04DX003 (ip), vehicle: saline with Tween-80 108 % of control

C[N+](C)(C)CCOC(=O)CCC(=O)OCC[N+](C)(C)C
inactive: dose: 0.31 mg/kg/injection, schedule: Q01DX009 (ip), vehicle: saline sonified 92 % of control | dose: 0.63 mg/kg/injection, schedule: Q01DX009 (ip), vehicle: saline sonified 96 % of control | dose: 1.25 mg/kg/injection, schedule: Q01DX009 (ip), vehicle: saline sonified 103 % of control | dose: 6.25 mg/kg/injection, schedule: Q04DX003 (ip), vehicle: saline 101 % of control | dose: 12.5 mg/kg/injection, schedule: Q04DX003 (ip), vehicle: saline 100 % of control

CCCN(CCC)N=Nc1c(C(=O)OC)n[nH]c1C
inactive: [5] 97 % of control | [6] 102 % of control | [1] 104 % of control and 108 % of control | dose: 117.0 mg/kg/injection, schedule: Q01DX009 (ip), vehicle: saline with Tween-80 122 % of control | dose: 178.0 mg/kg/injection, schedule: Q01DX009 (ip), vehicle: saline with Tween-80 97 % of control

Cn1c(=O)c(CC(O)C(Cl)(Cl)Cl)nc2ccccc21 (centres undefined)
inactive: dose: 100.0 mg/kg/injection, schedule: Q04DX003 (ip), vehicle: Klucel (hydroxypropylcellulose) (HPC) 95 % of control | dose: 200.0 mg/kg/injection, schedule: Q04DX003 (ip), vehicle: Klucel (hydroxypropylcellulose) (HPC) 95 % of control | dose: 400.0 mg/kg/injection, schedule: Q04DX003 (ip), vehicle: Klucel (hydroxypropylcellulose) (HPC) 98 % of control

CSc1cc(=O)n2c3ccccc3c3ccnc1c32
inactive: dose: 1.25 mg/kg/injection, schedule: Q01DX009 (ip), vehicle: saline with Tween-80 103 % of control | dose: 2.5 mg/kg/injection, schedule: Q01DX009 (ip), vehicle: saline with Tween-80 95 % of control | dose: 5.0 mg/kg/injection, schedule: Q01DX009 (ip), vehicle: saline with Tween-80 97 % of control | dose: 10.0 mg/kg/injection, schedule: Q01DX009 (ip), vehicle: saline with Tween-80 110 % of control

Nc1cc(NCc2ccco2)ncn1
inactive: dose: 37.5 mg/kg/injection, schedule: Q01DX009 (ip), vehicle: Klucel (hydroxypropylcellulose) (HPC) 107 % of control | dose: 75.0 mg/kg/injection, schedule: Q01DX009 (ip), vehicle: Klucel (hydroxypropylcellulose) (HPC) 97 % of control and 104 % of control

CN(C)c1nc(-c2ccncc2)nc(N(C)C)n1
inactive: [7] 92 % of control

c1ccc(CN2CCCCc3ccccc32)cc1
inactive: [6] 100 % of control | [1] 98 % of control | [3] 104 % of control

Nc1ccc(N(S(=O)(=O)c2ccccc2)S(=O)(=O)c2ccccc2)c(Cl)c1
inactive: [8] 96 % of control | dose: 200.0 mg/kg/injection, schedule: Q01DX001 (ip), vehicle: saline with Tween-80 98 % of control | [9] 96 % of control

C[n+]1cccc(NC(=O)COc2ccc(Cl)c(Cl)c2)c1
inactive: dose: 25.0 mg/kg/injection, schedule: Q04DX003 (ip), vehicle: saline with Tween-80 106 % of control | dose: 50.0 mg/kg/injection, schedule: Q04DX003 (ip), vehicle: saline with Tween-80 104 % of control | [2] 97 % of control and 104 % of control

O=C1OC2CCC(Br)CC2C=C1C1CCC([N+](=O)[O-])CC1 (centres undefined)
inactive: [7] 108 % of control | dose: 200.0 mg/kg/injection, schedule: Q04DX002 (ip), vehicle: saline with Tween-80 100 % of control | dose: 400.0 mg/kg/injection, schedule: Q04DX002 (ip), vehicle: saline with Tween-80 89 % of control

CC(=O)OCC1OC(OC(C)=O)C(NC(=O)Nc2cccc([N+](=O)[O-])c2)C(OC(C)=O)C1OC(C)=O (centres undefined)
inactive: dose: 12.5 mg/kg/injection, schedule: Q01DX009 (ip), vehicle: other 96 % of control | dose: 25.0 mg/kg/injection, schedule: Q01DX009 (ip), vehicle: other 96 % of control | dose: 50.0 mg/kg/injection, schedule: Q01DX009 (ip), vehicle: other 98 % of control | dose: 100.0 mg/kg/injection, schedule: Q01DX009 (ip), vehicle: other 100 % of control | dose: 200.0 mg/kg/injection, schedule: Q01DX009 (ip), vehicle: other 93 % of control

CN1CCCC(OC(=O)C(c2ccccc2)C2(O)CCCCC2)C1 (centres undefined)
inactive: dose: 75.0 mg/kg/injection, schedule: Q01DX001 (ip), vehicle: saline 101 % of control

CC(C(=O)c1ccccc1)C(c1ccccc1)N1CCCCC1 (centres undefined)
inactive: [8] 92 % of control | [1] 87 % of control | [3] 96 % of control | [9] 90 % of control | [4] 93 % of control

CCN1CCS(=O)(=O)C1=O
inactive: dose: 75.0 mg/kg/injection, schedule: Q01DX001 (ip), vehicle: other 108 % of control | dose: 150.0 mg/kg/injection, schedule: Q01DX001 (ip), vehicle: other 115 % of control

Clc1ccc2[nH]c3nc4ccccc4nc3c2c1
inactive: [10] 106 % of control | [11] 108 % of control

CCC(=O)c1ccc(Cc2ccc(C(=O)CC)cc2)cc1
inactive: dose: 50.0 mg/kg/injection, schedule: Q01DX009 (ip), vehicle: saline 87 % of control | [10] 92 % of control | [11] 98 % of control | dose: 400.0 mg/kg/injection, schedule: Q01DX009 (ip), vehicle: saline 93 % of control

Nc1nc(N)c2c(n1)CCCC2
inactive: dose: 12.5 mg/kg/injection, schedule: Q01DX009 (ip), vehicle: saline with Tween-80 93 % of control | [5] 88 % of control
